System: Formosean subterranean termites (Coptotermes formosanus)
Experiment: Subterranean termite activity on treated wooden frame structures (sheds), field test
Format: in vivo
Text: Twelve wooden frame structures (4 ft by 3 ft by 4 ft high, four to receive treatment with a bifenthrin solution, four to receive a commercial borate standard treatment and four to be used as untreated controls) were built on one inch thick concrete pads in an area of high subterranean termite pressure, Formosean subterranean termites (Coptotermes formosanus). The structures were constructed using pressure treated sill plates, untreated southern yellow pine studs and untreated plywood walls. A two inch diameter polyethylene pipe was installed in a hole in the center of each concrete pad to simulate a plumbing drain installation, leaving a small gap between the pad and the pipe. A piece of wood was inserted in the gap to encourage local termite pressure. […] Termite activity surrounding each structure was monitored by installing commercially available in-ground termite monitors (FIRSTLINE® Defender kits available from FMC Corporation) about one foot from each outside face, a total of four monitors per structure. […] Termite activity was measured in each structure by visually inspecting the inside and outside walls and the area around the polyethylene pipe for termite damage and for construction of shelter tubes at for up to 18 months after treatment. […]

## Cc1c(COC(=O)[C@@H]2[C@H](/C=C(\Cl)C(F)(F)F)C2(C)C)cccc1-c1ccccc1 (racemic) [Bifenthrin, 2-methylbiphenyl-3-ylmethyl (Z)-(1RS)-cis-3-(2-chloro-3,3,3-trifluoroprop-1-enyl)-2,2-dimethyl cyclopropanecarboxylate]
Up to 18 months after treatment
  Termite damage or damage to the wood piece inserted in the simulated plumbing drain hole: None of the bifenthrin treated structures had any indication of termite damage or damage to the wood piece
Visual inspection up to 18 months after treatment
  Damage to structures due to termite activity: very little or no damage due to termite activity

From patent publication US8359784B2, “Method for controlling subterranean termite activity by forming a barrier” (FMC Corporation, priority 2009, dated 2013)
